Assay results published in PubChem BioAssay AID624129 (Sanford-Burnham Center for Chemical Genomics, 2012).
Active and inactive are the calls of the source. How the calls were made is not given here.

Molecular target: C-X-C chemokine receptor type 6 (Homo sapiens) (UniProt O00574)
Assay: CXCR6 receptor antagonists, dose response, cell-based, beta-arrestin, DiscoveRx, APJ panel, uHTS hits (AID 624129)
Conditions: CXCR6 beta-arrestin (DiscoveRx) antagonist cell assay; for outcome: CXCR6, dose range 1; for inhibition: CXCR6, run 2, dose range 1, at 79 µM (top of the series)
[1] = CXCR6, dose range 1, mean IC50 across replicates

C-X-C chemokine receptor type 6 (Homo sapiens), sequence (O00574 whole entry, looked up): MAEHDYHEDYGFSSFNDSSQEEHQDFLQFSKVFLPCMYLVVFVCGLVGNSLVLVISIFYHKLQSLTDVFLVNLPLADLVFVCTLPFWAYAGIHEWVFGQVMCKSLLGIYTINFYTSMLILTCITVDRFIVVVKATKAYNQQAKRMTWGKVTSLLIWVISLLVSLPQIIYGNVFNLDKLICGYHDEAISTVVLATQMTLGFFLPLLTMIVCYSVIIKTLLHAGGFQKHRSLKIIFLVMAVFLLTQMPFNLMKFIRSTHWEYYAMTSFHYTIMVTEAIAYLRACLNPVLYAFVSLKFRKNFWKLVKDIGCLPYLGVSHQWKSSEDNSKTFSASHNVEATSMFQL

Compound | outcome | IC50 [1] [µM] | IC50 (CXCR6, run 1, dose range 2) [µM] | inhibition [%] | IC50 (CXCR6, run 2, dose range 2) [µM]
CCCC(=O)OCCNc1cc(SCc2ccco2)c2nonc2c1[N+](=O)[O-] | inactive | 12.2 | 11.3 | 103 | 13.1
COc1cc(/C=C/C(O)=C/C(=O)/C=C/c2ccc(O)cc2)ccc1O | inactive | 39.4 | 40.1 | 98.4 | 38.7
O=C(C(=Cc1ccc(F)cc1)C(=O)c1ccccc1)c1ccccc1 | inactive | 13.7 | 11.8 | 112 | 15.5
CC1=C(O)C(=O)C=C2C1=CC=C1C2(C)CCC2(C)C3CC(C)(C(=O)O)CCC3(C)CCC12C (stereo not given) | inactive | 19.3 | 16.7 | 113 | 21.9
COC(=O)C1=C(C(=O)OC)SC2(S1)C(C(=O)OC)=C(C(=O)OC)Sc1c2ssc1=O | inactive | 23.2 | 20.3 | 112 | 26
Cc1ccc(C(=O)NNC(=S)NC(=O)c2ccccc2)cc1 | inactive | 20.1 | 18 | 84.4 | 22.2
Cc1cc2nc(N3C(=O)CNC3=S)sc2cc1C | inactive | 11.6 | 8.25 | 89.4 | 14.9
CC(C)[C@H](NC(=O)OC(C)(C)C)c1nnc(S(=O)(=O)Cc2c(F)cccc2Cl)o1 | inactive | 13.3 | 12.9 | 111 | 13.8
CC[N+]1(C)CCC(O)(/C=C/c2ccccc2)C(C(=O)/C=C/c2ccccc2)C1 (stereo not given) | inactive | 18.2 | 17.8 | 112 | 18.7
Nc1ccccc1C#CC(=O)c1ccccc1 | inactive | 14.8 | 14.2 | 111 | 15.3
Cc1ccccc1CS(=O)(=O)c1nnc([C@H](Cc2ccccc2)NC(=O)OC(C)(C)C)o1 | inactive | 15.9 | 16 | 110 | 15.7
CCCC(=O)OCCNc1cc(SCCC(=O)OC)c2nonc2c1[N+](=O)[O-] | inactive | 22 | 23.6 | 108 | 20.3
CC(=O)N1N=C(c2cccs2)CC1c1cccc([N+](=O)[O-])c1 (stereo not given) | inactive | 23.2 | 20.8 | 73.7 | 25.5
COc1cc(C2C(C#N)=C(N)Oc3n[nH]c(-c4cccs4)c32)cc(OC)c1O (stereo not given) | inactive | 47.3 | 36.1 | 70.9 | 58.4
NC(=S)NN=C1c2cc(Cl)ccc2-c2c1cc(Cl)cc2[N+](=O)[O-] | inactive | 14.1 | 11.7 | 93.3 | 16.4
N#CC(C#N)=C1C=CC=CN1/C(=C\c1ccco1)C(=O)c1ccc(-c2ccccc2)cc1 | inactive | 14.1 | 12.2 | 103 | 16
CCC(=O)OCCNc1cc(SCCC(=O)OC)c2nonc2c1[N+](=O)[O-] | inactive | 22.5 | 21.5 | 108 | 23.5
CC(Oc1cccc(Br)c1)C(=O)NNC(=O)c1ccccn1 (stereo not given) | inactive | 14.4 | 12 | 105 | 16.9
Cc1ccc(NCC(=O)c2ccc(C)cc2)cc1 | active | 5.44 | 5.44 | 58.5 | > 79
FC(F)(F)c1cnc(NNC(=S)Nc2ccccc2)c(Cl)c1 | inactive | 14.9 | 12 | 112 | 17.8
Cc1cc(O)ccc1NC(=S)NC(=O)c1cncc(Br)c1 | inactive | 16.3 | 17.3 | 68.1 | 15.4
O=C(N/N=C/c1ccc([N+](=O)[O-])o1)c1sc2ccccc2c1Cl | inactive | 19.5 | 19.2 | 97 | 19.9
Cc1ccc(O)c(C(=O)CC(=O)c2ccc(Cl)cc2)c1 | inactive | 13.7 | 10.8 | 91.8 | 16.5
COc1cc(C2C(C#N)=C(N)Oc3n[nH]c(-c4cccnc4)c32)cc(Br)c1O (stereo not given) | inactive | 28.7 | 24.6 | 86.6 | 32.8
COc1cccc2sc(N(CCCN(C)C)C(=O)CCS(=O)(=O)c3ccccc3)nc12 | inactive | 14.7 | 13.5 | 111 | 15.9

Compound | outcome | IC50 [1] [µM] | IC50 (CXCR6, run 1, dose range 2) [µM] | inhibition [%] | IC50 (CXCR6, run 2, dose range 2) [µM]
Oc1ccc(Cl)c2cccnc12 | active | 4.82 | 4.82 | 17.7 | > 79
C=CCn1c(=O)c2c(nc3n2CC(C)CN3c2cccc(OC)c2)n(C)c1=O (stereo not given) | inactive | 19.5 | 18.3 | 66.1 | 20.7
C=CCN(CC=C)C(=S)NC(=O)c1ccc(C)c(Br)c1 | inactive | 12.6 | 11.7 | 65.4 | 13.4
O=C(NC(=S)N1CCN(c2ccc(C(F)(F)F)cc2[N+](=O)[O-])CC1)c1cccs1 | inactive | 12.9 | 10.4 | 85.8 | 15.4
COc1ccc(-c2c(C(=O)c3ccccc3)[nH]c(N)c2C(=O)c2ccccc2)cc1OC | inactive | 28.4 | 33.1 | 71.1 | 23.8
Cn1cnc([N+](=O)[O-])c1S(=O)(=O)Oc1ccccc1 | inactive | 19.4 | 16.5 | 111 | 22.3
FC(F)(F)c1cnc(NNC(=S)Nc2cccnc2)c(Cl)c1 | inactive | 21.1 | 11.8 | 107 | 30.4
Nc1cccc2c1C(=O)N(C(=O)/C=C/c1cccc(F)c1)C2=O | inactive | 51 | 65.1 | 98.3 | 37
Cc1ccc(NC(=O)c2ccc(Nc3c([N+](=O)[O-])cc([N+](=O)[O-])cc3[N+](=O)[O-])cc2)cc1 | inactive | 28.5 | 31.4 | 89.3 | 25.7
Cc1ccc(NC(=S)NNc2ccc(C(=O)O)cc2[N+](=O)[O-])cc1C | inactive | 48.9 | 48.9 | 62 | > 79
CC1=CC(C)(C)N2C(=O)C(=Nc3ccc(O)cc3)c3cccc1c32 | inactive | 57.9 | 77.4 | 84 | 38.4
O=C1c2cccc3c([N+](=O)[O-])ccc(c23)C(=O)N1c1ccccn1 | inactive | 24.3 | 24.3 | 101 | 24.2
COC(=O)/C=C\C(=O)Nc1cccc([N+](=O)[O-])c1 | inactive | 16.6 | 18 | 111 | 15.2
COc1ccc(C(=O)NC(=S)Nc2ccc([N+](=O)[O-])cc2C)cc1OC | inactive | 21.7 | 18.3 | 100 | 25.1
Cc1ccc(NC(=O)c2nc(S(=O)(=O)Cc3ccccc3C)ncc2Cl)cc1C | inactive | 13.7 | 13 | 104 | 14.3
C=C1CCN([C@@H](Cc2ccccc2)C(=O)NCCC(C)C)S(=O)(=O)c2ccccc21 | inactive | 15.2 | 17.1 | 69.3 | 13.3
CCC(C)c1ccc(O)c(NC(=S)NC(=O)c2cccs2)c1 (stereo not given) | inactive | 11.8 | 15.4 | 82.8 | 8.27
Cc1c(N=Nc2c(O)[nH]c(=S)[nH]c2=O)c(=O)n(-c2ccccc2)n1C | inactive | 22.5 | 16.4 | 107 | 28.6
Cc1cc(C)cc(N2C(=O)CC(Sc3nnnn3-c3ccccc3)C2=O)c1 (stereo not given) | inactive | 14.5 | 13.9 | 113 | 15.2
CCn1nccc1C(=O)Nc1nc2ccccc2n1CCN1CCCCC1 | inactive | 20.5 | 17.2 | 84.7 | 23.7
Cc1[nH]n2c(=O)cc(-c3ccc([N+](=O)[O-])cc3)nc2c1-c1ccccc1 | inactive | 14.6 | 13.9 | 81.6 | 15.3
CCOC(=O)c1c(-c2ccc(C)o2)csc1NC(=S)NC(=O)N(C)C | inactive | 13.6 | 9.19 | 99.3 | 18
O=C(C#Cc1ccccc1)c1ccccc1 | inactive | 11.3 | 10.9 | 113 | 11.6
NC(=O)c1ccccc1NCC(=O)c1ccc(Cl)cc1 | active | 5.58 | 5.58 | 36.4 | > 79
